IC50 data for 27 compounds are collected here from patent US9657015B2, “Substituted bicyclic dihydropyrimidinones and their use as inhibitors of neutrophil elastase activity” (Boehringer Ingelheim International GmbH, priority 2014, dated 2017).

In assay [1] the target is Human neutrophil elastase (Homo sapiens (Human), UniProt P08246). Briefly: Human Neutrophil Elastase Assay. In kind it is biochemical. To be noted: substrate MeOSuc-Ala-Ala-Pro-Val-AMC 250 μM, pH 7.5, room temperature.
Description: The following buffers were used: Compound buffer: 100 mM Tris, 500 mM NaCl, adjusted to pH 7.5; Assay buffer: 100 mM Tris, 500 mM NaCl, adjusted to pH 7.5, containing 0.01% BSA.
Assay conditions: Test compounds were prediluted in DMSO and subsequently in compound buffer (5% DMSO final). […] After inactivation of the enzyme, fluorescence intensities were measured at 380 nm excitation and 460 nm emission wavelengths.
Each plate contains wells with a high value control (DMSO+enzyme+substrate) and wells with a low value control (DMSO+inactivated enzyme+substrate). IC50 values were estimated using a sigmoidal concentration response curve with variable slope. Means of low values were taken as 0%, means of high values as 100%.
For assay [2], the target named is neutrophil elastase in human plasma (Homo sapiens (Human), UniProt P08246). Briefly: Neutrophil elastase inhibitory activity in human plasma. The assay is classed as biochemical. The conditions noted are these: human plasma assay (zymosan-stimulated blood plasma), substrate 250 μM, pH 7.5.
Description: Assay for the Determination of Neutrophil Elastase Inhibitory Activity in Human Plasma
Citrated blood from human healthy donors is mixed with zymosan suspension and incubated at room temperature. This leads to the stimulation of neutrophils and the release of neutrophil elastase into the plasma. The stimulated blood is centrifuged to generate the neutrophil elastase enriched plasma.
Preparation of Zymosan Working Solution:
Various concentrations of the neutrophil elastase inhibitor are incubated with plasma. […] A dose response curve is generated to calculate the EC50 of the inhibitor.

A value given as a limit tells only on which side of the number the result lay.

Sequence of Human neutrophil elastase (P08246 30-247): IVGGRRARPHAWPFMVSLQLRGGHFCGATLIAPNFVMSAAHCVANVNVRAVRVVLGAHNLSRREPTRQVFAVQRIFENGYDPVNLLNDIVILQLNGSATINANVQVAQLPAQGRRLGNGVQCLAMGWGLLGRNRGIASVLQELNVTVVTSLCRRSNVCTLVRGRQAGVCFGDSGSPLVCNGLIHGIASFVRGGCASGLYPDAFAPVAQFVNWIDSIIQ
Sequence of neutrophil elastase in human plasma (P08246 30-247): as above

In the case of `COCCNC(=O)CN1C(=O)N(c2cccc(C(F)(F)F)c2)C2=C(C(=O)NCC2)C1c1ccc(C#N)cc1` (stereo not drawn) [Example 12.4], the values for the IC50 in assay [1] and in assay [2] were 2 nM and 5.1 nM, respectively.

As for `N#Cc1ccc(C2NC(=O)N(c3cccc(C(F)(F)F)c3)C3=C2C(=O)NCC3)c(Br)c1` (stereo not drawn) [Example 21, 3-Bromo-4-{2,5-dioxo-1-[3-(trifluoromethyl)phenyl]-1H,2H,3H,4H,5H,6H,7H,8H-pyrido[4,3-d]pyrimidin-4-yl}benzonitrile], the half-maximal inhibitory concentration (IC50) in assay [1] and in assay [2] was 1.9 nM throughout.

In the case of `CCNC(=O)CN1C(=O)N(c2cccc(C(F)(F)F)c2)C2=C(C(=O)NCC2)C1c1ccc(C#N)cc1` (stereo not drawn) [Example 12.2], the IC50 (commonly the midpoint of a concentration-inhibition curve) in assay [1] was 2.4 nM; in assay [2] it was 2.5 nM.

For `CCNC(=O)N1CCC2=C(C1=O)C(c1ccc(C#N)cc1)NC(=O)N2c1cccc(C(F)(F)F)c1` (stereo not drawn) [Example 19, 4-(4-Cyanophenyl)-N-ethyl-2,5-dioxo-1-[3-(trifluoromethyl)phenyl]-1H,2H,3H,4H,5H,6H,7H,8H-pyrido[4,3-d]pyrimidine-6-carboxamide], the values for the 50% inhibitory concentration (IC50) in assay [1] and in assay [2] were 4.9 nM and 18 nM, respectively.

In the case of `CNC(=O)N1C(=O)N(c2cccc(C(F)(F)F)c2)C2=C(C(=O)NCC2)C1c1ccc(C#N)cc1` (stereo not drawn) [Example 16, 4-(4-Cyanophenyl)-N-methyl-2,5-dioxo-1-(3-(trifluoromethyl)phenyl)-1,2,5,6,7,8-hexahydropyrido[4,3-d]pyrimidine-3(4H)-carboxamide], the IC50 in assay [1] was less than 1 nM; in assay [2], 2.4 nM.

Regarding `N#Cc1ccc(C2NC(=O)N(c3cccc(C(F)(F)F)c3)C3=C2C(=O)N(C(=O)NCCO)CC3)cc1` (stereo not drawn) [Example 18, 4-(4-Cyanophenyl)-N-(2-hydroxyethyl)-2,5-dioxo-1-[3-(trifluoromethyl)phenyl]-1H,2H,3H,4H,5H,6H,7H,8H-pyrido[4,3-d]pyrimidine-6-carboxamide], the values for the concentration for half-maximal inhibition (IC50) in assay [1] and in assay [2] were 3.8 nM and 6.7 nM, respectively.

Take `CN1C(=O)N(c2cccc(C(F)(F)F)c2)C2=C(C(=O)NCC2)C1c1ccc(C#N)cc1-c1ccncc1` (stereo not drawn) [Example 33, 4-{3-Methyl-2,5-dioxo-1-[3-(trifluoromethyl)phenyl]-1H,2H,3H,4H,5H,6H,7H,8H-pyrido[4,3-d]pyrimidin-4-yl}-3-(pyridin-4-yl)benzonitrile]: the half-inhibitory concentration (IC50) in assay [1] was less than 1 nM; in assay [2], 5.3 nM.

Take `CN1C(=O)N(c2cccc(C(F)(F)F)c2)C2=C(C(=O)NCC2)C1c1ccc(C#N)cc1CO` (racemic) [Example 29, 3-(Hydroxymethyl)-4-{3-methyl-2,5-dioxo-1-[3-(trifluoromethyl)phenyl]-1H,2H,3H,4H,5H,6H,7H,8H-pyrido[4,3-d]pyrimidin-4-yl}benzonitrile]: the 50% inhibitory concentration (IC50) in assay [1] and in assay [2] was less than 1 nM each time.

With `N#Cc1ccc(C2NC(=O)N(c3cccc(C(F)(F)F)c3)C3=C2C(=O)N(C(=O)NCCCO)CC3)cc1` (stereo not drawn) [Example 20, 4-(4-Cyanophenyl)-N-(3-hydroxypropyl)-2,5-dioxo-1-[3-(trifluoromethyl)phenyl]-1H,2H,3H,4H,5H,6H,7H,8H-pyrido[4,3-d]pyrimidine-6-carboxamide], the half-inhibitory concentration (IC50) in assay [1] worked out at 3.7 nM; in assay [2], 6.9 nM.

For `N#Cc1ccc(C2C3=C(CCNC3=O)N(c3cccc(C(F)(F)F)c3)C(=O)N2CC(N)=O)cc1` (stereo not drawn) [Example 11, 2-(4-(4-Cyanophenyl)-2,5-dioxo-1-(3-(trifluoromethyl)phenyl)-1,2,5,6,7,8-hexahydropyrido[4,3-d]pyrimidin-3(4H)-yl)acetamide], the figures for the IC50 in assay [1] and in assay [2] were 3 nM and 2.9 nM, respectively.

Regarding `N#Cc1ccc(C2NC(=O)N(c3cccc(C(F)F)c3)C3=C2C(=O)NCC3)cc1` (racemic) [Example 2, 4-(1-(3-(Difluoromethyl)phenyl)-2,5-dioxo-1,2,3,4,5,6,7,8-octahydropyrido[4,3-d]-pyrimidin-4-yl)benzonitrile], the half-maximal inhibitory concentration (IC50) in assay [1] came to 6.9 nM; in assay [2], 8.2 nM.

Turning to `N#Cc1ccc(C2C3=C(CCNC3=O)N(c3cccc(C(F)(F)F)c3)C(=O)N2CC(=O)N2CCOCC2)cc1` (stereo not drawn) [Example 12.7], the concentration for half-maximal inhibition (IC50) in assay [1] and in assay [2] was less than 1 nM in each case.

On to `CN1CCC2=C(C1=O)[C@@H](c1ccc(C#N)cc1)N(C)C(=O)N2c1cccc(C(F)(F)F)c1` [Example 7, (R)-4-(3,6-Dimethyl-2,5-dioxo-1-(3-(trifluoromethyl)phenyl)-1,2,3,4,5,6,7,8-octahydropyrido[4,3-d]pyrimidin-4-yl)benzonitrile], for which the IC50 was 1.2 nM in assay [1] and 2 nM in assay [2].

Take `N#Cc1ccc(C2C3=C(CCNC3=O)N(c3cccc(C(F)(F)F)c3)C(=O)N2C(=O)NCCO)cc1` (stereo not drawn) [Example 17, 4-(4-Cyanophenyl)-N-(2-hydroxyethyl)-2,5-dioxo-1-[3-(trifluoromethyl)phenyl]-1H,2H,3H,4H,5H,6H,7H,8H-pyrido[4,3-d]pyrimidine-3-carboxamide]: the IC50 in assay [1] and in assay [2] was less than 1 nM throughout.

With `CNC(=O)CN1C(=O)N(c2cccc(C(F)(F)F)c2)C2=C(C(=O)NCC2)[C@H]1c1ccc(C#N)cc1` [Example 12A, (R)-2-(4-(4-Cyanophenyl)-2,5-dioxo-1-(3-(trifluoromethyl)phenyl)-1,2,5,6,7,8-hexahydropyrido[4,3-d]pyrimidin-3(4H)-yl)-N-methylacetamide], the half-inhibitory concentration (IC50) in assay [1] was 1.3 nM; in assay [2], less than 1 nM.

For `Cn1cc(-c2cc(C#N)ccc2C2NC(=O)N(c3cccc(C(F)(F)F)c3)C3=C2C(=O)NCC3)cn1` (stereo not drawn) [Example 24, 4-{2,5-Dioxo-1-[3-(trifluoromethyl)phenyl]-1H,2H,3H,4H,5H,6H,7H,8H-pyrido-[4,3-d]pyrimidin-4-yl}-3-(1-methyl-1H-pyrazol-4-yl)benzonitrile], the IC50 in assay [1] was less than 1 nM; in assay [2], 1.4 nM.

In the case of `CN1CCC2=C(C1=O)C(c1ccc(C#N)cc1)NC(=O)N2c1cccc(C(F)(F)F)c1` (racemic) [Example 4, 4-(6-Methyl-2,5-dioxo-1-(3-(trifluoromethyl)phenyl)-1,2,3,4,5,6,7,8-octahydropyrido[4,3-d]pyrimidin-4-yl)benzonitrile], the results for the concentration for half-maximal inhibition (IC50) in assay [1] and in assay [2] were 5.8 nM and 2.9 nM, respectively.

`N#Cc1ccc(C2NC(=O)N(c3cccc(C(F)(F)F)c3)C3=C2C(=O)NCC3)c(C(F)(F)F)c1` (stereo not drawn) [Example 27, 4-{2,5-Dioxo-1-[3-(trifluoromethyl)phenyl]-1H,2H,3H,4H,5H,6H,7H,8H-pyrido-[4,3-d]pyrimidin-4-yl}-3-(trifluoromethyl)benzonitrile]: the 50% inhibitory concentration (IC50) in assay [1] and in assay [2] was less than 1 nM throughout.

For `CN1C(=O)N(c2cccc(C(F)(F)F)c2)C2=C(C(=O)NCC2)C1c1ccc(C#N)cc1-c1cnco1` (racemic) [Example 25, 4-{3-Methyl-2,5-dioxo-1-[3-(trifluoromethyl)phenyl]-1H,2H,3H,4H,5H,6H,7H,8H-pyrido[4,3-d]pyrimidin-4-yl}-3-(1,3-oxazol-5-yl)benzonitrile], the figures for the half-inhibitory concentration (IC50) in assay [1] and in assay [2] were less than 1 nM and 1.5 nM, respectively.

On to `N#Cc1ccc(C2NC(=O)N(c3cccc(C(F)(F)F)c3)C3=C2C(=O)NCC3)cc1` (racemic) [Example 1, 4-(2,5-Dioxo-1-(3-(trifluoromethyl)phenyl)-1,2,3,4,5,6,7,8-octahydropyrido[4,3-d]-pyrimidin-4-yl)benzonitrile], for which the IC50 in assay [1] worked out at 5.7 nM; in assay [2], 11 nM.

Take `CNC(=O)CN1C(=O)N(c2cccc(C(F)(F)F)c2)C2=C(C(=O)NCC2)C1c1ccc(C#N)cc1` (racemic) [Example 12, 2-(4-(4-Cyanophenyl)-2,5-dioxo-1-(3-(trifluoromethyl)phenyl)-1,2,5,6,7,8-hexahydropyrido[4,3-d]pyrimidin-3(4H)-yl)-N-methylacetamide]: the concentration for half-maximal inhibition (IC50) came out at 2 nM in assay [1] and 2.8 nM in assay [2].

As for `CC1(C)CC2=C(C(=O)N1)C(c1ccc(C#N)cc1)N(CC(=O)O)C(=O)N2c1cccc(C(F)(F)F)c1` (stereo not drawn) [Example 13, 2-(4-(4-cyanophenyl)-7,7-dimethyl-2,5-dioxo-1-(3-(trifluoromethyl)phenyl)-1,2,5,6,7,8-hexahydropyrido[4,3-d]pyrimidin-3(4H)-yl)acetic acid], the 50% inhibitory concentration (IC50) in assay [1] worked out at 4.3 nM; in assay [2], 2.2 nM.

Take `CN1C(=O)N(c2cccc(C(F)(F)F)c2)C2=C(C(=O)NCC2)C1c1ccc(C#N)cc1-c1cnn(C)c1` (racemic) [Example 26, 3-(1-Methyl-1H-pyrazol-4-yl)-4-{3-methyl-2,5-dioxo-1-[3-(trifluoromethyl)phenyl]-1H,2H,3H,4H,5H,6H,7H,8H-pyrido[4,3-d]pyrimidin-4-yl}benzonitrile]: the figures for the half-inhibitory concentration (IC50) in assay [1] and in assay [2] were less than 1 nM and 1.4 nM, respectively.

In the case of `CC1(C)CC2=C(C(=O)N1)C(c1ccc(C#N)cc1)NC(=O)N2c1cccc(C(F)(F)F)c1` (stereo not drawn) [Example 3, 4-(7,7-Dimethyl-2,5-dioxo-1-(3-(trifluoromethyl)phenyl)-1,2,3,4,5,6,7,8-octahydropyrido[4,3-d]pyrimidin-4-yl)benzonitrile], the half-inhibitory concentration (IC50) in assay [1] was 9.8 nM; in assay [2] it was 13 nM.

`CN1C(=O)N(c2cccc(C(F)(F)F)c2)C2=C(C(=O)NCC2)C1c1ccc(C#N)cc1C(F)(F)F` (stereo not drawn) [Example 28, 4-{3-Methyl-2,5-dioxo-1-[3-(trifluoromethyl)phenyl]-1H,2H,3H,4H,5H,6H,7H,8H-pyrido[4,3-d]pyrimidin-4-yl}-3-(trifluoromethyl)benzonitrile]: the half-maximal inhibitory concentration (IC50) in assay [1] was less than 1 nM; in assay [2] it was 1.1 nM.

As for `CN1CCC2=C(C1=O)C(c1ccc(C#N)cc1)N(CC(N)=O)C(=O)N2c1cccc(C(F)(F)F)c1` (stereo not drawn) [Example 14, 2-(4-(4-Cyanophenyl)-6-methyl-2,5-dioxo-1-(3-(trifluoromethyl)phenyl)-1,2,5,6,7,8-hexahydropyrido[4,3-d]pyrimidin-3(4H)-yl)acetamide], the half-inhibitory concentration (IC50) in assay [1] came out at 3 nM; in assay [2], 14 nM.

For the compound `N#Cc1ccc(C2C3=C(CCNC3=O)N(c3cccc(C(F)(F)F)c3)C(=O)N2CC(=O)NCCO)cc1` (stereo not drawn) [Example 12.3], the IC50 in assay [1] came to 2.1 nM; in assay [2] it was 3.6 nM.
